Data: patent US20260137696A1, “Compositions Comprising an Inhibitor of Galectin-3” (University of Liverpool, priority 2023, published 2026)
Values joined by “and” are separate entries in the source; they are usually repeats but may differ in a detail not shown here. Identical values can stand only once. “Also recorded” adds a separate entry of the source.

What was measured:
Galectin-3 = target: T1, Galectin-3 (Homo sapiens, UniProt P17931); experiment: Galectin-3 binding to its ligand asialofetuin (ASF), ELISA; details: Galectin-3 5 μg/ml, ASF 20 μg/ml, read-out: IC50, inhibition of Galectin-3 binding to ASF
T1 construct: made in house; host or cells: E. coli
Description: The compounds of Formula I and Formula II each inhibits Galectin-3 binding to ASF dose-dependently with IC50 1˜5 μM;
FIG. 1A and FIG. 1B show compounds of Formula I and Formula II inhibit Galectin-3 binding to its ligand asialofetuin (ASF). […] The compounds of Formula I and Formula II each inhibit Galectin-3 binding to ASF dose-dependently with IC50 1˜5 μM.
Ninety-six well ELISA plates were coated with 20 μg/ml ASF in coating buffer (1.6 g Na2CO3, 1.46 NaHCO3 in 1 L H20, pH 9.6) overnight at room temperature. The plates were washed twice with washing buffer (0.05% Tween-20 in PBS) before incubation with blocking buffer (1% BSA in PBS) for 30 min. Recombinant human Galectin-3 (5 ug/ml) was incubated without or with various concentrations of the compounds of Formula I and compounds of Formula II for 30 min before introduced to the plates for 2 hr at room temperature. The plates were washed twice with washing buffer before introduction of anti-Galectin-3 antibody (1 μg/ml) for 2 hr. The plates were washed three times with washing buffer before introduction of HRP-conjugated secondary antibody (1:5,000 dilutions) for 1 hr at room temperature. The plates were washed twice with washing buffer before developed by SigmaFAST. The reaction was stopped by addition of 4M sulphuric acid before the plates were read at 492 nm (ref 595 nm) by a microplate reader.

ACA19+ cells = experiment: Melanoma cell adhesion to HUVECs; format: cell-based; details: human melanoma ACA19+ cells, various concentrations
Description: (§1) Adhesion of human colon cancer SW620 cells to human umbilical vein endothelial cells (HUVECs) was assessed in the absence or presence of the compounds of Formula I and Formula II (10 μM). […] (N=2, n=2);
(§2) Adhesion of human colon cancer SW620 cells to human umbilical vein endothelial cells (HUVECs) was assessed in the absence or presence of the compounds of Formula I and Formula II (10 μM).
(§3) HUVECs (1.5×10^5 cells/ml) were seeded into 96-well plates in complete EBM-2 medium and incubated at 37° C. 5% CO2 for 48-72 hours until a monolayer was formed. Monolayer integrity was confirmed by measuring trans-endothelial electrical resistance (TEER) using a Volt Ohm Meter and only monolayers with TEER reading over 800 Ω/cm^2 were used for the assay. ZsGreen- and luciferase-transfected SW620Gal3+, SW620Gal3− or ACA19+ cells (5×10^5 cells/ml) was then added to the HUVECs without or with 10 μM of the compound of Formula I or the compound of Formula II for 30-35 min at 37° C. The cells were washed twice with PBS before lysed with PLB. The cell lysates were transferred into new wells of white-walled 96-well plates and Luciferase Assay Reagent was added. The wells were mixed well and luminescence was measured using Infinite F200 Microplate reader. The experiment was performed three times, each time in triplicates.

SW620 cells = experiment: Cancer cell invasion through HUVECs (transwell); format: cell-based, human; details: 10 μM, transwells
Description: Invasion of human colon cancer SW620 cells through human umbilical vein endothelial cells (HUVECs) was assessed in transwells in the absence or presence of the compounds of Formula I and Formula II (10 μM).
HUVECs were seeded (1.5×10^4 cells/well) into trans-well insert in 24-well plate and cultured for three days to allow tight monolayer formation (TEER reading >800 Ω/cm2). The integrity of HUVEC monolayer was confirmed by measuring TEER and only monolayers with TEER reading >800 Ω/cm^2 were used for the invasion assay. The HUVEC monolayers were washed with PBS before introduction of ZsGreen- and luciferase transfected SW620Gal3+, SW620Gal-3, or ACA19+ cells (5×10^5 cells/ml) in serum-free DMEM with 0.5 mg/ml BSA, without or with 10 μM the compound of Formula I or the compound of Formula II. ZsGreen- and luciferase-labelled SW620Gal3− and SW620Gal3+ cells (5×10^5 cells/ml) were mixed without or with 10 μM inhibitors for 15 minutes before introduced to the HUVEC monolayer in the transwells for 16-18 hours. The cells at the upper side of the trans-well inserts were gently removed with a cotton swab and the inserts were washed twice with PBS. The cells that migrated to the bottom side of the trans-wells were lysed with PLB buffer for 10 min. The lyse was introduced with Luciferase Assay Reagent for 5 min before luminescence was measured. […]

PANC1 cell = experiment: Pancreatic cancer cell adhesion to basement matrix; format: cell-based, human; details: for adhesion of control PANC1 cells: non-transfected cells (FIG. 16C, 16D); for PANC1 cell adhesion to matrix: different concentrations (FIG. 16A, 16B)
Description: Nanty-six well plates were coated with 50 μl Matrigel (1:30 diluted in PBS) at 37° C. for 1 hour. Cancer cells, pre-labelled with fluorescent die DiI at 37° C. for 20 minutes, were washed twice with PBS and resuspended into 3×10^4 cells/ml in serum-free medium. The matrix-coated 96-well plates were washed twice with PBS before introduction of […] cell suspension with different concentrations of the inhibitors or PBS/DMSO (control) for 1 hour at 37° C. The plates were washed twice with PBS before three randomly selected Field of Views (FOVs) were recorded by fluorescence microscope and number of adhesion cells were quantified by Image J.

SW620^Gal3+ cells = experiment: Cancer cell adhesion to HUVECs; format: cell-based, human; details: 10 μM; Galectin-3-expressing SW620^Gal3+ cells
Description: as §1, §2, §3

T1 sequence (P17931 whole entry): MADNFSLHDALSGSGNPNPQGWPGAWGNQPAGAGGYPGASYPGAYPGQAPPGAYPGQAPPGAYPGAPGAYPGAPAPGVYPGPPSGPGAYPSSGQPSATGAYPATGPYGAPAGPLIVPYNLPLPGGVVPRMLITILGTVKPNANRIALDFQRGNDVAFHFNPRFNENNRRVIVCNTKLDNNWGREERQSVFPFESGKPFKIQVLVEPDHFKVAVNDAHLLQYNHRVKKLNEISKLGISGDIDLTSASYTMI

SMILES	IC50 (Galectin-3)	ACA19+ cell adhesion to HUVEC (ACA19+ cells)	SW620 cell invasion through HUVECs (SW620 cells)	adhesion of control PANC1 cells (PANC1 cell)	PANC1 cell adhesion to matrix (PANC1 cell)	adhesion to HUVEC (SW620^Gal3+ cells)
C[C@H]1COc2c(N3CCN(C)CC3)c(F)cc3c(=O)c(C(=O)NNc4cccc(N)c4)cn1c23 [Formula II]	~5000 nM and 1000 to 5000 nM	dose-dependent inhibition	significant inhibits	significant reduction; also recorded: significant inhibition	dose-dependently inhibits	significantly inhibits
C[C@H]1COc2c(N3CCN(C)CC3)c(F)cc3c(=O)c(C(=O)NNc4ccc(N)cc4)cn1c23 [Formula I]	~1000 nM and 1000 to 5000 nM	dose-dependent inhibition	significant inhibits	significant reduction; also recorded: significant inhibition	dose-dependently inhibits	significantly inhibits
